One substance from article PMC6240096, “A hPSC-based platform to discover gene-environment interactions that impact human β-cell and dopamine neuron survival” (Nature Communications, 2018) can be followed below.

Experiment [1] relates to BJ-fibroblasts. Description: Inhibition curve on BJ-fibroblasts. In kind it is cell-based, human. The settings on record: cell survival rate, 4 days, n=3. The method, then:
(§1) hESCs-derived INS^+ cells, MSCs[43], neurons, and hepatocytes[44] were derived based on the reported protocols and re-plated on 96-well plates with Accutase digestion. Cardiomyocytes (CMs) were differentiated from H9-MYH6: mCherry reporter line, based on the reported protocol. After overnight incubation, cells were treated with DMSO or different doses of hit compounds for 4 days. After fixation, the cells were stained with markers for each cell type. DAPI was used to stain cell nuclei. Plates were analyzed by ImageXpress^MICRO Automated High-Content Analysis System.
(§2) Supplementary Figure 4. Assessment of the toxic effect of propargite on different type […]
(§3) (a) Flow cytometry char acterization of CD29+ and CD73+ mesenchymal stem cells (MSCs) derived from H1 hESCs. (b-c) microscope image (b) and flow cytometry (c) characterization of cardiomyocytes expressing MYH6+ derived from a MYH6:mCherry reporter hESC line. (d-e) Immunocytochemistry characterization of MAP2+/TUJ1+ and HuC/D+/MAP2+ neurons (d) and A1AT+/ASGPR1+ hepatocytes (e) derived from H1 hESCs. All the cells were counterstained by DAPI (blue). Scale bars, 100 µm. (f) Inhibition curve of propargite on pancreatic β-like cells, MSCs, cardiomyocytes, neurons, and hepatocytes derived from hESCs, and BJ-fibroblasts (n=3). Values presented as mean±S.D. […]

Experiment [2] has as its system MIN6 cells. Description: Intracellular ROS detection. The settings on record: propargite-treated MIN6 cells.
Procedure: Total intracellular ROS were detected using DCFDA-Cellular Reactive Oxygen Species Detection Assay Kit (Abcam, ab113851).
Species detection for different doses of propargite-treated MIN6 cells (n=3). 50 µM TBHP
was used as a positive control.
Experiment [3] deals with INS- cells. As to the kind of experiment: High-content survival / inhibitory curve, hESC-derived INS- cells. It is filed as cell-based, human. The settings on record: H1 hESC-derived, β-cell differentiation protocol 1, 4 days treatment, n = 8. On the procedure: The screening library ToxCast Phase I was obtained from the US Environmental Protection Agency, which contains approximately 2000 compounds dissolved at 20 mM in DMSO. The H1 hESC-derived population was dissociated with Accutase and re-plated onto laminin V-coated 384-well plates at 5000 cells per well. After 16 h incubation, cells were treated with individual compounds from the ToxCast library with four concentrations, including 20 nM, 200 nM, 2 μM, and 20 μM, for each compound. After 4 days, the cells were fixed with 10% formalin and stained with an INS antibody and DAPI, followed by automatic imaging and analysis by ImageXpress^MICRO Automated High-Content Analysis System (Molecular Devices) to count the numbers of INS^+ and INS^− cells. The survival rate was calculated by dividing the numbers of INS^+ cells in compound treated conditions by the average number of INS^+ cells in DMSO-treated conditions. The compounds that induced more than 60% reduction of the survival rate of INS^+ cells and less than 20% of the INS^− cells were chosen as primary hits. […]
hESCs-derived INS^+ cells, MSCs[43], neurons, and hepatocytes[44] were derived based on the reported protocols and re-plated on 96-well plates with Accutase digestion. […] Plates were analyzed by ImageXpress^MICRO Automated High-Content Analysis System.

Experiment [4] deals with INS+ cells. As to the kind of experiment: High-content survival / inhibitory curve, hESC-derived INS+ cells. In kind it is cell-based, human. To be noted: H1 hESC-derived, β-cell differentiation protocol 1, 4 days treatment, n = 8; read-out: IC50 for INS+ cells. On the procedure:
The screening library ToxCast Phase I was obtained from the US Environmental Protection Agency, which contains approximately 2000 compounds dissolved at 20 mM in DMSO. The H1 hESC-derived population was dissociated with Accutase and re-plated onto laminin V-coated 384-well plates at 5000 cells per well. After 16 h incubation, cells were treated with individual compounds from the ToxCast library with four concentrations, including 20 nM, 200 nM, 2 μM, and 20 μM, for each compound. After 4 days, the cells were fixed with 10% formalin and stained with an INS antibody and DAPI, followed by automatic imaging and analysis by ImageXpress^MICRO Automated High-Content Analysis System (Molecular Devices) to count the numbers of INS^+ and INS^− cells. The survival rate was calculated by dividing the numbers of INS^+ cells in compound treated conditions by the average number of INS^+ cells in DMSO-treated conditions. The compounds that induced more than 60% reduction of the survival rate of INS^+ cells and less than 20% of the INS^− cells were chosen as primary hits. Hit compounds were then selected and validated in three additional independent experiments using the same protocol as the primary screening.
as §1

Experiment [5] concerns GSTT1-/- INS+ cells. Description: Inhibition curve on INS+ cells derived from GSTT1-/- H1 hESCs. In kind it is cell-based, human. To be noted: H1 hESC-derived, n = 3; read-out: IC50 for GSTT1-/--1 INS+ cells. On the procedure: as §1
CRISPR sgRNA sequences were designed using the web resources available at http://www.genome-engineering.org/. The target sequences are listed in Supplementary Table 2. Each target sequence was cloned into the pX330-U6-Chimeric_BB-CBh-hSpCas9 vector (Addgene plasmid #42230) to make the gene targeting constructs. To knockout the target genes, two sgRNAs were validated using the surveyor assay in 293T cells, and we chose 1 sgRNA-construct plasmid for further experiments. After validation, H1 or INS^GFP/W HES3 cells were dissociated using Accutase (STEM CELL) and electroporated (8 × 10^5 cells per sample) with 4 μg sgRNA-construct plasmids using Human Stem Cell Nucleofector^TM solution (Lonza) following manufacturer’s instructions. […] A portion of the cells was analyzed by DNA sequencing. […]

Experiment [6] relates to EndoC-βH1 cells. As to the kind of experiment: EndoC-βH1 cells carrying sgGSTT1, PI staining. It is filed as cell-based, human. The settings on record: 1.6 μM propargite. On the procedure:
Two sgRNAs targeting two different loci on GSTT1 gene: sgGSTT1-1 and sgGSTT1-2 and a sgRNA targeting GFP (sgGFP)[46] which has no specific targets on the human genome and was used as a control, were cloned into lentiCRISPRv2 vectors (Addgene plasmid # 52961)[47]. EndoC-βH1 cells were infected with the lentivirus carrying Cas9 and sgRNAs. After 2 days of selection with 1 μg/ml puromycin, western blots were used to validate the knockout efficiency.

Experiment [7] concerns A1AT+ hepatocytes. Description: Inhibition curve on hESC-derived hepatocytes. To be noted: cell survival rate, 4 days, n=3. It is filed as cell-based, human. The method, then:
as §1, §2, §3

Experiment [8] relates to mDA neurons. As to the kind of experiment: Survival of hESC-derived midbrain dopamine neurons. It is filed as cell-based, human.
Procedure: Scale bars, 50 μm. b Relative cell survival rate of cortical- and mDA-neurons treated with DMSO or different doses of propargite. […] White arrows indicate propargite-treated mDA cells (TH; red) co-stained with the DNA damage marker (rH2AX; green), and all cells were counterstained with DAPI (blue). […] Values presented as mean ± S.D. p-value was calculated by unpaired two-tailed Student’s t-test were *p < 0.05, **p < 0.01. n.s. indicates a non-significant difference.
Cortical and mDA differentiation from hESC were done with similar protocols those published by our lab previously[36],[37].
For experiment [9], the system named is MIN6 cells. As to the kind of experiment: MIN6 cell survival inhibitory curve. In kind it is cell-based, mouse. The settings on record: cell survival rate; read-out: IC50, MIN6 cell death.

On to “2-(4-tert-butylphenoxy)-cyclohexyl prop-2-yne-1-sulfonate [propargite]”, for which the IC50 in [1] was found to be 3 µM; in experiment [3] it was 9.83 µM; in [4] it was 1.09 µM; in experiment [5], 1.17 µM; in experiment [7] it was 13 µM; in experiment [9] it was 1 µM. Also, the “reactive oxygen species (ROS)” value in experiment [2] is listed as “did not find any increase”. Further, the “INS+ cell death in EndoC-βH1 cells expressing sgGSTT1” value in experiment [6] is “significant increase”. Moreover, the “mDA neuron cell death” value in experiment [8] (concentrations at 1 and 3 μM, compared with cortical neurons) was “significant mDA neuron cell death”. The “decrease of total cell number in DA neuron cultures” value in experiment [8] (propargite 1 µM, 3 µM) was 40-60%. Moreover, the “sensitivity of GSTT1-/- hESC-derived mDA neurons vs GSTT1+/+ or GSTM1-/-” value in experiment [8] (propargite 3 μM, FOXA2+ cells) is given as “more sensitive”.
